Measured values from ChEMBL document CHEMBL6177997, “Design, Synthesis, and Evaluation of Novel ROCK Inhibitors for Glaucoma Treatment: Insights into In Vitro and In Vivo Efficacy and Safety” (J Med Chem, 2025).
Active and inactive are the calls of the source. No cut-off for these calls is given here.

Tests used:
[1] = target: Rho-associated protein kinase 1 (Homo sapiens, UniProt Q13464); assay: Inhibition of ROCK1 (unknown origin) incubated for 40 mins in presence of ATP by ADP-glo assay
[2] = target: Rho-associated protein kinase 2 (Homo sapiens, UniProt O75116); assay: Inhibition of ROCK2 (unknown origin) incubated for 40 mins in presence of ATP by ADP-glo assay
[3] = target: MAP kinase-interacting serine/threonine-protein kinase 1 (Homo sapiens, UniProt Q9BUB5); assay: Inhibition of MNK1 (unknown origin) at 5 uM preincubated for 10 mins followed by substrate addition and measured after 60 mins by ADP-glo kinase assay relative to control; conditions: time 70.0 min
[4] = target: MAP kinase-interacting serine/threonine-protein kinase 2 (Homo sapiens) (UniProt Q9HBH9); assay: Inhibition of MNK2 (unknown origin) at 5 uM preincubated for 10 mins followed by substrate addition and measured after 60 mins by ADP-glo kinase assay relative to control; conditions: time 70.0 min
HTM [5] = assay: Induction of morphological changes in human HTM cells at 3 uM incubated for 10 hrs by light microscopic analysis; type: functional, cell-based
HTM [6] = assay: Induction of F-actin depolymerization in human HTM cells at 5 uM incubated for 4 hrs by rhodamine-phalloidin staining based analysis; type: cell-based
HTM [7] = assay: Inhibition of paxillin expression in human HTM cells at 5 uM; type: functional, cell-based
HTM [8] = assay: Inhibition of TGF-beta2 induced alpha-SMA expression in human HTM cells at 1 uM pretreated with compound for 2 hrs followed by TGF-beta2 induction and measured after 24 hrs; type: functional, cell-based; conditions: time 26.0 hrs
HTM [9] = assay: Inhibition of TGF-beta2 induced collagen 1A expression in human HTM cells at 1 uM pretreated with compound for 2 hrs followed by TGF-beta2 induction and measured after 24 hrs; type: functional, cell-based; conditions: time 26.0 hrs
HTM [10] = assay: Inhibition of H2O2-induced ROS production in human HTM cells assessed as decrease in green fluorescence at 1 uM preincubated for 1 hrs followed by H2O2 induction for 2 hrs and measured after 30 mins by DCFH-DA based fluorescence microscopic analysis; type: functional, cell-based; conditions: time 3.5 hrs
Mitochondrial membrane = assay: Induction of mitochondrial membrane potential in human HTM cells at 1 uM incubated for 24 hrs by JC-1 staining based flow cytometry analysis
[11] = Induction of apoptosis in H2O2-induced human HTM cells at 1 uM pretreated with compound for 1 hr followed by H2O2 induction and measured after 2 hrs by Annexin V AF647/PI staining based flow cytometry analysis (reference value: 13.47%); type: functional; conditions: time 3 hrs

MAP kinase-interacting serine/threonine-protein kinase 1, sequence (Q9BUB5 whole entry, looked up): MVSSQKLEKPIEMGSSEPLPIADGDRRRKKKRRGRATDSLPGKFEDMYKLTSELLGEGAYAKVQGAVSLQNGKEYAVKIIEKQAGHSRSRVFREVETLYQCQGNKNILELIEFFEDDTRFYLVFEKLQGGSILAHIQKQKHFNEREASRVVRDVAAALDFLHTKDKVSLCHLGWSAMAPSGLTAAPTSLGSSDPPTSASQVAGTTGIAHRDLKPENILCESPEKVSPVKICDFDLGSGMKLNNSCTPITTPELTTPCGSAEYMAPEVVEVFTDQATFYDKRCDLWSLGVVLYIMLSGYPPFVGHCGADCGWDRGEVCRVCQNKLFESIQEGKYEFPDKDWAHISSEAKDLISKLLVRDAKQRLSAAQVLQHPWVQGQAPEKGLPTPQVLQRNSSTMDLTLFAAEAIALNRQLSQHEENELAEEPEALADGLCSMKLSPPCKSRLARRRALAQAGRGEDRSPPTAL
Rho-associated protein kinase 2, sequence (O75116 whole entry): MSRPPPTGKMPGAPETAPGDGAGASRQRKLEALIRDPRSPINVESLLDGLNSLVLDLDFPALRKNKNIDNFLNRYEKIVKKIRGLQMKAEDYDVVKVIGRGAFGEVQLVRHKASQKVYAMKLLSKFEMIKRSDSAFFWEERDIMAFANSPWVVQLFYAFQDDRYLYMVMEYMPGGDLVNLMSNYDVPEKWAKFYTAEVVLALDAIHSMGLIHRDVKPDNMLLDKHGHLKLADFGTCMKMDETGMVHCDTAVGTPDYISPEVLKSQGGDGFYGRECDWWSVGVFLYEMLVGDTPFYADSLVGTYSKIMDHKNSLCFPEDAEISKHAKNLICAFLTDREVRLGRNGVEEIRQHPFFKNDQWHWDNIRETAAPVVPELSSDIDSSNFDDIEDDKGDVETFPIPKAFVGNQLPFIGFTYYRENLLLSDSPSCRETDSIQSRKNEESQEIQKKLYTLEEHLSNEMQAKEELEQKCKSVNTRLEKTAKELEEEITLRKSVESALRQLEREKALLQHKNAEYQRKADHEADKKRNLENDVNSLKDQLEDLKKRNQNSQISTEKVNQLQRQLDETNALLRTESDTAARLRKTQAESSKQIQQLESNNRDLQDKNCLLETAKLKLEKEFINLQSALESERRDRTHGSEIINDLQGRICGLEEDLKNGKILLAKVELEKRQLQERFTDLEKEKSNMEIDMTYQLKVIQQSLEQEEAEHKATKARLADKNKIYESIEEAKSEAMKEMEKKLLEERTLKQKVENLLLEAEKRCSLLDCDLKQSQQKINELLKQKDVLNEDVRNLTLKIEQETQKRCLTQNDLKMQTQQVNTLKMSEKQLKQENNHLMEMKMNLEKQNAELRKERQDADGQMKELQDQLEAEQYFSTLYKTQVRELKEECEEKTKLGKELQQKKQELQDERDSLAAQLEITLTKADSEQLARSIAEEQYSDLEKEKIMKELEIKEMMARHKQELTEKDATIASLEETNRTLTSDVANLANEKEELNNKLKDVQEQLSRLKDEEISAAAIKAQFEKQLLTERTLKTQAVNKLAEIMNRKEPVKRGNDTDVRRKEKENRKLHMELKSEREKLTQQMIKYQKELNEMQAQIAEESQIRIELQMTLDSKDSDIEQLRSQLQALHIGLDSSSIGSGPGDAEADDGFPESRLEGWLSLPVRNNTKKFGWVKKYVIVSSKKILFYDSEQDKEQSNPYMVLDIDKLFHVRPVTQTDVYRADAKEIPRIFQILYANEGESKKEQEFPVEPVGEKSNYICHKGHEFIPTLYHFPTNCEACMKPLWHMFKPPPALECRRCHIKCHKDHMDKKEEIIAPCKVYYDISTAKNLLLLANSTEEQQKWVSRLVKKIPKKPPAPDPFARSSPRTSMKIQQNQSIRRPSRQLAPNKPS
Rho-associated protein kinase 1, sequence (Q13464 whole entry): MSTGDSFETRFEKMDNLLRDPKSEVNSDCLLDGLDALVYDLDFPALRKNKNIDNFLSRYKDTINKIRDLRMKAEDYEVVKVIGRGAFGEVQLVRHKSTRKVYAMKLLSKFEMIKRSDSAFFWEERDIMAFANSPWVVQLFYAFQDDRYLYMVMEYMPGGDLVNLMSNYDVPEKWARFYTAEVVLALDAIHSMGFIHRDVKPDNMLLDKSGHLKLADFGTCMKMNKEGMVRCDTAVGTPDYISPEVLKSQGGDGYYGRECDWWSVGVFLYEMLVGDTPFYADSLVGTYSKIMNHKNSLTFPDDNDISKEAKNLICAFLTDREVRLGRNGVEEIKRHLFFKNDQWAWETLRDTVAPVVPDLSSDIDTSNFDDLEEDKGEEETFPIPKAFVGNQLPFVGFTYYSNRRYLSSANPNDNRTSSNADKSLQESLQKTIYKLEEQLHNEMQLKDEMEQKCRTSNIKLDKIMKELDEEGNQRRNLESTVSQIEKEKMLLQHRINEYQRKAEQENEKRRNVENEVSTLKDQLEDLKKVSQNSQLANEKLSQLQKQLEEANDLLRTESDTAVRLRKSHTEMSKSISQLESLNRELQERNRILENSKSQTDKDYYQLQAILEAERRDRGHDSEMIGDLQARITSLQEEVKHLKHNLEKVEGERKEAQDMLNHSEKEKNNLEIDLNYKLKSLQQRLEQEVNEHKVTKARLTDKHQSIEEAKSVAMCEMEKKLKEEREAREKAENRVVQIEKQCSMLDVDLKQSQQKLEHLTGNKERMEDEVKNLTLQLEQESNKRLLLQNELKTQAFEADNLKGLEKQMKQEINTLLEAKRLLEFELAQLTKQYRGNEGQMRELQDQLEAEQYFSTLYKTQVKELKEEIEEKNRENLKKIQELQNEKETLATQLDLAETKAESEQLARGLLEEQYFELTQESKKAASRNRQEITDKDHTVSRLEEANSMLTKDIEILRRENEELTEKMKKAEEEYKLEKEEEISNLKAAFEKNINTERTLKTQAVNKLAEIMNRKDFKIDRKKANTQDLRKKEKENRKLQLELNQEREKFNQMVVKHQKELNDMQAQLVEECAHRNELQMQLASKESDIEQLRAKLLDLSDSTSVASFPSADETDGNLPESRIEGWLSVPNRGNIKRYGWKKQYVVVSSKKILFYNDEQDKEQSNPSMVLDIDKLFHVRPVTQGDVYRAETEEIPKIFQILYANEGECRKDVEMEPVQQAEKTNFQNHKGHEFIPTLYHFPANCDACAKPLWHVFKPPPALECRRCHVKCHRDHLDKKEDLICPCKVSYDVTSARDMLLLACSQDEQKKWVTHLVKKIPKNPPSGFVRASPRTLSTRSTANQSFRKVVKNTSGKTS
MAP kinase-interacting serine/threonine-protein kinase 2 (Homo sapiens), sequence (Q9HBH9 whole entry, looked up): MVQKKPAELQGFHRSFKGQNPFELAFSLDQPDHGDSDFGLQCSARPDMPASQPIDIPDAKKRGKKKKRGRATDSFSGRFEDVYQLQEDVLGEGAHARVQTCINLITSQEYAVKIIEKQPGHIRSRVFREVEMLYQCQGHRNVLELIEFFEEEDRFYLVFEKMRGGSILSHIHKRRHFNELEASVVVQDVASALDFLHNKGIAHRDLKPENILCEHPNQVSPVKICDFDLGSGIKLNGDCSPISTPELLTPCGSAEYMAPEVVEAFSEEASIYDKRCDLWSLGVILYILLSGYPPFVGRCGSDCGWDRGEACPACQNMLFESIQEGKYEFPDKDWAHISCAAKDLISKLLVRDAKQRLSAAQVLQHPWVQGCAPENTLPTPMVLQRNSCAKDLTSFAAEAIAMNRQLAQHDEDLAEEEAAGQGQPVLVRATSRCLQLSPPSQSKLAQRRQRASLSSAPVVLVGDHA

Structure (SMILES)	IC50 [1] [nM]	IC50 [2] [nM]	inhibition [3] [%]	inhibition [4] [%]	further results
CC(=O)c1ccc(C(=O)N2CCC(c3cc(-c4ccnc5[nH]ccc45)[nH]n3)CC2)cc1	512	468	71.7	60.9	–
Cc1cccc(CN2CCC(c3cc(-c4ccnc5[nH]ccc45)[nH]n3)CC2)c1	> 5000	> 5000	71.4	79.9	–
FC(F)(F)c1cccc(CN2CCC(c3cc(-c4ccnc5[nH]ccc45)[nH]n3)CC2)c1	1180	969	50.9	57.2	–
CC(=O)c1cccc(CN2CCC(c3cc(-c4ccnc5[nH]ccc45)[nH]n3)CC2)c1	895	823	69.2	89	–
O=C(C1CC1)N1CCC(c2cc(-c3ccnc4[nH]ccc34)[nH]n2)CC1	1010	1070	40.9	42.5	–
O=S(=O)(F)N1CCC(c2cc(-c3ccnc4[nH]ccc34)[nH]n2)CC1	229	329	68.3	86.7	–
c1ccc(Oc2cccc(CN3CCC(c4cc(-c5ccnc6[nH]ccc56)[nH]n4)CC3)c2)cc1	1340	1060	68.1	73.5	–
Cc1ccc(S(=O)(=O)N2CCC(c3cc(-c4ccnc5[nH]ccc45)[nH]n3)CC2)cc1	> 10000	> 10000	6.4	6.9	–
O=C(C1CCC1)N1CCC(c2cc(-c3ccnc4[nH]ccc34)[nH]n2)CC1	846	1050	39.9	42.3	–
O=C(C1CCCCC1)N1CCC(c2cc(-c3ccnc4[nH]ccc34)[nH]n2)CC1	1720	2110	20.8	14.6	–
O=C(c1ccc(F)cc1)N1CCC(c2cc(-c3ccnc4[nH]ccc34)[nH]n2)CC1	821	833	61.1	47.4	–
COc1cccc(CC(=O)N2CCC(c3cc(-c4ccnc5[nH]ccc45)[nH]n3)CC2)c1	350	305	41.6	62.7	–
COc1ccc(CN2CCC(c3cc(-c4ccnc5[nH]ccc45)[nH]n3)CC2)cc1OC	241	150	65.2	66.1	–
COc1ccc(C(=O)N2CCC(c3cc(-c4ccnc5[nH]ccc45)[nH]n3)CC2)cc1OC	696	362	73	59.7	–
COc1cc(C(=O)N2CCC(c3cc(-c4ccnc5[nH]ccc45)[nH]n3)CC2)cc(OC)c1OC	1490	1450	60.8	74.4	–
CC(=O)N1CCC(c2cc(-c3ccnc4[nH]ccc34)[nH]n2)CC1	1220	980	41.8	58	–
Fc1cccc(CN2CCC(c3cc(-c4ccnc5[nH]ccc45)[nH]n3)CC2)c1	295	338	69.9	76.8	–
N#CCN1CCC(c2cc(-c3ccnc4[nH]ccc34)[nH]n2)CC1	261	130	71.4	84.4	–
O=C(c1ccc(C(F)(F)F)cc1)N1CCC(c2cc(-c3ccnc4[nH]ccc34)[nH]n2)CC1	1160	939	81.3	57.4	–
COc1cccc(C(=O)N2CCC(c3cc(-c4ccnc5[nH]ccc45)[nH]n3)CC2)c1	805	577	52.5	34.3	–

Structure (SMILES)	IC50 [1] [nM]	IC50 [2] [nM]	inhibition [3] [%]	inhibition [4] [%]	further results
c1ccc(CN2CCC(c3cc(-c4ccnc5[nH]ccc45)[nH]n3)CC2)cc1	197	172	73.2	82.4	–
CCS(=O)(=O)N1CCC(c2cc(-c3ccnc4[nH]ccc34)[nH]n2)CC1	286	158	16	22.4	–
COC(=O)c1ccc(C(=O)N2CCC(c3cc(-c4ccnc5[nH]ccc45)[nH]n3)CC2)cc1	777	401	77.1	53.4	–
O=C(c1ccc([N+](=O)[O-])cc1)N1CCC(c2cc(-c3ccnc4[nH]ccc34)[nH]n2)CC1	823	699	78.6	63.5	–
C[C@H]1CNCCCN1S(=O)(=O)c1cccc2cncc(F)c12	–	–	–	–	Activity (HTM [5]): Active; Activity (HTM [6]): Active; inhibition (HTM [7]): inactive; inhibition (HTM [8]): Active; inhibition (HTM [9]): Active; inhibition (HTM [10]): Active; Activity (Mitochondrial membrane): inactive; Activity [11]: 39.46%
COc1ccc(C(=O)N2CCC(c3cc(-c4ccnc5[nH]ccc45)[nH]n3)CC2)cc1	829	492	75.3	54.7	–
O=C(c1ccc(F)c(F)c1)N1CCC(c2cc(-c3ccnc4[nH]ccc34)[nH]n2)CC1	699	907	67.2	53.3	–
O=C(C1CCCC1)N1CCC(c2cc(-c3ccnc4[nH]ccc34)[nH]n2)CC1	1980	3880	47.5	44.4	–
O=S(=O)(C1CC1)N1CCC(c2cc(-c3ccnc4[nH]ccc34)[nH]n2)CC1	489	1070	63.6	73.4	–
O=C(c1ccc(Cl)cc1)N1CCC(c2cc(-c3ccnc4[nH]ccc34)[nH]n2)CC1	899	369	82.2	58.4	–
Cc1ccc(CN2CCC(c3cc(-c4ccnc5[nH]ccc45)[nH]n3)CC2)cc1	> 5000	> 5000	76	82.2	–
COc1ccc(CC(=O)N2CCC(c3cc(-c4ccnc5[nH]ccc45)[nH]n3)CC2)cc1	813	486	8.8	4.2	–
COC(=O)c1cccc(CN2CCC(c3cc(-c4ccnc5[nH]ccc45)[nH]n3)CC2)c1	570	390	61.6	70.9	–
Cc1ccc(C(=O)N2CCC(c3cc(-c4ccnc5[nH]ccc45)[nH]n3)CC2)cc1	773	484	74.4	52.2	–
COc1ccc(CN2CCC(c3cc(-c4ccnc5[nH]ccc45)[nH]n3)CC2)cc1	183	118	61.5	67.4	–
O=C(c1cccc(F)c1)N1CCC(c2cc(-c3ccnc4[nH]ccc34)[nH]n2)CC1	842	542	66.6	52.1	–
O=C(CC1CC1)N1CCC(c2cc(-c3ccnc4[nH]ccc34)[nH]n2)CC1	1180	787	39.3	46.5	–
O=C(Cc1ccccc1)N1CCC(c2cc(-c3ccnc4[nH]ccc34)[nH]n2)CC1	432	433	49.7	72.2	–
Fc1ccc(CN2CCC(c3cc(-c4ccnc5[nH]ccc45)[nH]n3)CC2)cc1F	425	295	71.1	78.8	–
C=CC(=O)N1CCC(c2cc(-c3ccnc4[nH]ccc34)[nH]n2)CC1	791	553	56	61	–
